Results on one compound are retold here after ChEMBL document CHEMBL4715874, “In Vivo Screening of Xanthones from Garcinia oligantha Identified Oliganthin H as a Novel Natural Inhibitor of Convulsions” (J Nat Prod, 2020).

The nature of data set [1]: Toxicity in AB zebra fish larvae assessed as mortality at >= 6.2 uM after 6 hrs relative to control. On the set-up: species or system Danio rerio. The note with it: zebrafish.
Data set [2] in a line: Neurotoxicity in AB zebra fish larvae at 1.5 uM after 6 hrs. In kind it is toxicity, Danio rerio. The note with it: zebrafish.
Data set [3] can be described thus: Toxicity in AB zebra fish larvae assessed as maximum tolerated concentration after 6 hrs. Further details: species or system Danio rerio. The note with it: zebrafish, read-out: MTC.
Data set [4] can be described thus: Neurotoxicity in AB zebra fish larvae assessed as decrease in total swimming distance at <= MTC after 6 hrs. The class given is toxicity, Danio rerio. The note with it: zebrafish.
The species named for data set [5] is Danio rerio. Put plainly: Anticonvulsant activity in AB zebra fish larvae assessed as reduction in PTZ-induced convulsant behavior by measuring swimming distance at 0.7 uM pretreated for 6 hrs followed by PTZ-stimulation and measured every 5 mins for 1 hr. The class given is functional, organism-based. The note with it: time 7.0 hrs.
The species named for data set [6] is Danio rerio. Put plainly: Anticonvulsant activity in AB zebra fish larvae assessed as reduction in PTZ-induced convulsant behavior by measuring lowest observed effect concentration pretreated for 6 hrs followed by PTZ-stimulation and measured every 5 mins for 1 hr. In kind it is functional. The note with it: time 7 hrs.
A short description of data set [7]: Ratio of MTC for toxicity in AB zebra fish larvae to lowest observed effect concentration for Anticonvulsant activity in AB zebra fish larvae assessed as reduction in PTZ-induced convulsant behavior. Further details: species or system Danio rerio.

Active and inactive are the calls of the source. The rule behind the calls is not given here.

For `CC(C)=CCC12CC(C(C)(C)O)OC1=C(O)C(=O)c1oc3c4c(cc(O)c3c(=O)c12)OC(C)(C)C=C4` (configuration not stated), the mortality at 6 h in data set [1] worked out at 100%. The values for the Activity entry (in data set [2]; in data set [4]; in the data set filed under Danio rerio [6]) were “Toxic”, “Non-Toxic” and 0.7 µM, respectively. Further, the MNTC at 6 h in data set [3] is 700 nM. Besides, the outcome in the data set filed under Danio rerio [5] was Active. Also, the Ratio in data set [7] is 1.

In general, mortality refers to the share of the test organisms that died.
